pIC50: −log10 of the molar value.
Biological target: T1, Acetylcholinesterase (Rattus norvegicus, UniProt P37136)
T1 sequence (P37136 whole entry): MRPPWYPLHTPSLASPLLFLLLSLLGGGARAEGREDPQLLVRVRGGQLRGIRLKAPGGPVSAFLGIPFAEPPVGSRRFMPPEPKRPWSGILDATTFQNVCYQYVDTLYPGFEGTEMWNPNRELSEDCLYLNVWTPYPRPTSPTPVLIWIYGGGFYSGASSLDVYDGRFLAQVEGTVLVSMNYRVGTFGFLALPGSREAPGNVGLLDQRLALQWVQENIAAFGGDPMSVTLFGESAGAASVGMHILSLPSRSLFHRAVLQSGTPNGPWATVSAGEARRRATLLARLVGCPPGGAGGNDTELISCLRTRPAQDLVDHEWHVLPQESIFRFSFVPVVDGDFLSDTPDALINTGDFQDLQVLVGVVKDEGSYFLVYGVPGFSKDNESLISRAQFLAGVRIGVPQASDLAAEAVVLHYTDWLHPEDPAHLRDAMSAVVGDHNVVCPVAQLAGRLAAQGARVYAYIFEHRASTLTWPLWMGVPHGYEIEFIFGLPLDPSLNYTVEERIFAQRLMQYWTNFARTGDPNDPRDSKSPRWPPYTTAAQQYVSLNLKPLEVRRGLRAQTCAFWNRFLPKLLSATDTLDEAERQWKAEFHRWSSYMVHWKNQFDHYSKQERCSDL
Assay: In vitro inhibitory activity against Acetylcholinesterase (AChE) using rat brain hippocampal crude homogenates.
Type: tissue-based, Hippocampus

`CC1=CC2Cc3nc(O)ccc3C(N)(C1)/C2=C/CF` (stereo unspecified) was tested. Which pIC50 did it give?
The pIC50 was 5.00.
